Drawing on BindingDB's records for doi:10.1007/s002100000217 (Croissy-Sur-Seine Paris, 2000), this text covers Ki for 4 molecules.

The assay addresses D(3) dopamine receptor (Homo sapiens, UniProt P35462).

Molecules are shown by their SMILES. Where “and” joins values, the source holds several entries; their conditions need not be identical. Equal values may be shown once.

Sequence of D(3) dopamine receptor (P35462 as listed by the source): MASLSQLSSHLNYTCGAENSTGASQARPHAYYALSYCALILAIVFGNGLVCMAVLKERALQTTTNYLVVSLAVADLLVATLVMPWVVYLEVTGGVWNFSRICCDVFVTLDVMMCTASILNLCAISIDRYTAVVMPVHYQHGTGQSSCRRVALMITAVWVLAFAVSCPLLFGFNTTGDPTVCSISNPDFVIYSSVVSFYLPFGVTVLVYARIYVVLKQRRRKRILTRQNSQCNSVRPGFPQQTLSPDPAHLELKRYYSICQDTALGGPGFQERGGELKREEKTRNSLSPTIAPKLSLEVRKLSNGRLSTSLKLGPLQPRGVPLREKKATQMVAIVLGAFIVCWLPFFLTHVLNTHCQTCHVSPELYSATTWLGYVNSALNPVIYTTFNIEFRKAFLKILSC

What is called Ki is the dissociation constant of the complex between target and ligand, obtained from inhibition or displacement. Higher therefore signals lower affinity. For `CCCN1CCO[C@@H]2c3cc(O)ccc3OC[C@H]21`, the Ki was 2.14 nM and 7.59 nM and 3.55 nM.

`CCCN(CCC)C1CCc2cc3c(cc2C1)OCC3` (centres undefined): the Ki is 12.3 nM and 33.1 nM and 11.5 nM.

With `CCCN(CCC)C1CCc2cc(CS(=O)(=O)c3ccc(OC)cc3)ccc2C1` (centres undefined) [GR218231], the Ki was 1.12 nM and 1.95 nM and 1.38 nM.

`N#Cc1ccc2c(c1)[C@H]1CN(CCCCNC(=O)c3ccc(-c4ccccc4)cc3)C[C@@H]1CO2` [S33084]: the inhibition constant (Ki) is 0.302 nM and 0.933 nM and 0.372 nM.
